Assay results published in patent US7951403B2, “Method of making pharmaceutical multiparticulates” (Pfizer Inc., priority 2003, dated 2011).

Assay: Azithromycin dihydrate crystallinity in molten carrier mixtures with varying water, by PXRD
Format: physicochemical
Procedure: Another way to determine the activity of volatile species in crystalline drug at the processing conditions is by measuring the change in the crystalline state of the drug as a function of the amount of volatile species present in the molten mixture. A series of blends of the crystalline drug, the carrier, and varying amounts of volatile species are prepared and placed into sealed containers. The containers are then heated to the processing temperature used to form the multiparticulates and held at this temperature for a period of time, such as 90 minutes. During this time, a sample of the container's atmosphere, i.e., the container's “headspace,” can be taken and the partial pressure of volatile species in the headspace can be measured using standard techniques, such as by gas chromatography. The containers are then cooled and the concentration of the desired crystalline form of the drug in each sample can be determined using standard techniques, as described below. The concentration of the desired crystalline form of the drug in the sample is then plotted versus the amount of volatile species included in the blend or the concentration of volatile species present in the headspace. […] The amount of the desired crystalline form of the drug in the samples and in multiparticulates can be determined using Powder X-Ray Diffraction (PXRD) analysis. In an exemplary procedure, PXRD analysis may be performed on a Bruker AXS D8 Advance diffractometer. In this analysis, samples of about 500 mg are packed in Lucite sample cups and the sample surface smoothed using a glass microscope slide to provide a consistently smooth sample surface that is level with the top of the sample cup. Samples are spun in the φ plane at a rate of 30 rpm to minimize crystal orientation effects. The X-ray source (S/B KCuα, λ=1.54 Å) is operated at a voltage of 45 kV and a current of 40 mA. Data for each sample are collected over a period of about 20 to 60 minutes in continuous detector scan mode at a scan speed of about 1 to 15 seconds/step and a step size of 0.02°/step. Diffractograms are collected over the 2θ range of 4° to 30°. The crystallinity of the test sample is determined by comparison with two or more calibration standards consisting of physical mixtures of crystalline drug and carrier. Each physical mixture is blended together 15 minutes on a Turbula mixer. Using the instrument software, the area under the diffractogram curve is integrated over the 2θ range using a linear baseline. This integration range includes as many drug-specific peaks as possible while excluding carrier-related peaks. A linear calibration curve of percent crystalline drug versus the area under the diffractogram curve is generated from the calibration standards. The crystallinity of the test sample is then determined using these calibration results and the area under the curve for the test sample. Results are reported as a mean percent drug crystallinity by crystal mass. The amount of water required to maintain the dihydrate form of azithromycin while forming multiparticulates by a melt-congeal process was determined as follows. The composition of the multiparticulates was 50 wt % azithromycin dihydrate, 46 wt % of the matrix excipient COMPRITOL 888 ATO (a mixture of 13 to 21 wt % glyceryl mono-behenate, 40 to 60 wt % glyceryl di-behenate, and about 35 wt % glyceryl tri-behenate from Gattefossé Corporation of Paramus, N.J.), and 4 wt % of the poloxamer dissolution enhancer PLURONIC F127 (polyoxyethylene-polyoxypropylene block copolymer, from BASF Corporation of Mt. Olive, N.J.). Mixtures of these materials containing varying amounts of water were prepared and analyzed by PXRD. To form each mixture, 100 g azithromycin dihydrate, 92 g of the COMPRITOL 888 ATO, and 8 g of the PLURONIC F127 were added to a water-jacketed stainless steel sealed vessel. Various amounts of water were added to each mixture to obtain varying water concentrations. […]

For `CC[C@H]1OC(=O)[C@H](C)[C@@H](O[C@H]2C[C@@](C)(OC)[C@@H](O)[C@H](C)O2)[C@H](C)[C@@H](O[C@@H]2O[C@H](C)C[C@H](N(C)C)[C@H]2O)[C@](C)(O)C[C@@H](C)CN(C)[C@H](C)[C@@H](O)[C@]1(C)O` [Azithromycin Dihydrate, 9a-aza-9a-methyl-9-deoxo-9a-homoerythromycin A], the “Azithromycin Dihydrate Crystallinity” value (Water in melt sample 0.35 wt %, same mixture, 90 min at 90° C.) was 57 wt %, the “Azithromycin Dihydrate Crystallinity” value (Water in melt sample 0.45 wt %, same mixture, 90 min at 90° C.) was 68 wt % and the “Azithromycin Dihydrate Crystallinity” value (Water in melt sample 1.88 wt %, same mixture, 90 min at 90° C.) was 91 wt %. The “Azithromycin Dihydrate Crystallinity” value (Water in melt sample 2.22 wt %, same mixture, 90 min at 90° C.) was 93 wt %, the “Azithromycin Dihydrate Crystallinity” value (Water in melt sample 3.08 wt %, 50/46/4 azithromycin dihydrate/COMPRITOL 888 ATO/PLURONIC F127, stirred 90 min at 90° C., sealed vessel) was 95 wt % and the “water needed in the mixtures to maintain high levels of azithromycin dihydrate crystallinity in the melt” value (melt at 90° C., COMPRITOL 888 ATO/PLURONIC F127 carrier) was “at least 2.2 wt %”.
